Reference: patent US10035800B2 (AbbVie Inc., priority 2013, dated 2018)

What was measured:
BRD4 (BDII_E352-M457) = molecular target: T1, BRD4 (BDII_E352-M457) (Homo sapiens, UniProt O60885); test: TR-FRET bromodomain binding assay, second bromodomain of BRD4; details: TR-FRET assay protocol G (compound 0.92 μM-15 pM); 30 nM probe
T1 construct: protocol; made in house
Procedure: (§1) Bromodomain Domain Binding Assay
(§2) A time-resolved fluorescence resonance energy transfer (TR-FRET) assay was used to determine the affinities of compounds of the Examples listed in Table 1 for each bromodomain of BRD4. His-tagged first (BD1: amino acids K57-E168) and second (BD2: amino acids […]) bromodomains of BRD4 were expressed and purified. An Alexa647-labeled BET-inhibitor was used as the fluorescent probe in the assay.
(§3) Compound dilution series were prepared in DMSO via an approximately 3-fold serial dilution from one of the following: […]
(§4) Assay method E: 0.47 mM to 7.8 nM […]
(§5) Assay method G: 0.047 mM to 0.78 nM
(§6) or 5-fold serial dilution from one of the following: […]
(§7) Assay method B: 2.5 mM-797 nM […]
(§8) For Assay methods B, E, and G: Compound dilutions were added directly into white, low-volume assay plates (Perkin Elmer Proxiplate 384 Plus#6008280) using a Labcyte Echo in conjunction with Labcyte Access and Thermo Multidrop CombinL robotics. Compounds were then suspended in eight microliters (μL) of assay buffer (20 mM Sodium Phosphate, pH 6.0, 50 mM NaCl, 1 mM Ethylenediaminetetraacetic acid disodium salt dihydrate, 0.01% Triton X-100, 1 mM DL-Dithiothreitol) containing His-tagged bromodomain, Europium-conjugated anti-His antibody (Invitrogen PV5596) and Alexa-647-conjugated probe.
(§9) The final concentration of 1× assay mixture for assay methods A, B, C, D, E, F, and G contains 2% DMSO, 8 nM His-tagged bromodomain, 1 nM Europium-conjugated anti-His-tag antibody and 100 nM or 30 nM probe (for BDI or BDII, respectively) and compound concentration in the range of: 50 μM-16 nM for method A, 49.02 μM-15.63 nM for method B, 25 μM-423 pM for method C, 10 μM-169 pM for method D, 9.19 μM-150 pM for method E, 5 μM-85 pM for method F, and 0.92 μM-15 pM for method G.
(§10) After a one-hour equilibration at room temperature, TR-FRET ratios were determined using an Envision multilabel plate reader (Ex 340, Em 495/520).
(§11) TR-FRET data were normalized to the means of 24 no-compound controls (“high”) and 8 controls containing 1 μM un-labeled probe (“low”). Percent inhibition was plotted as a function of compound concentration and the data were fit with the 4 parameter logistic equation to obtain IC50s. Inhibition constants (Ki) were calculated from the IC50s, probe Kd and probe concentration. Typical Z′ values were between 0.65 and 0.75. The minimum significant ratio was determined to evaluate assay reproducibility (Eastwood et al., (2006) J Biomol Screen, 11: 253-261). The MSR was determined to be 2.03 for BDI and 1.93 for BDII, and a moving MSR (last six run MSR overtime) for both BDI and BDII was typically <3.

BRD4 (BDI_K57-E168) = molecular target: T2, BRD4 (BDI_K57-E168) (Homo sapiens, UniProt O60885); test: TR-FRET bromodomain binding assay, first bromodomain of BRD4; details: TR-FRET assay protocol G (compound 0.92 μM-15 pM); 100 nM probe
T2 construct: BD1: amino acids K57-E168; made in house
Procedure: as §1, §2, §3, §4, §5, §6, §7, §8, §9, §10, §11

SMILES	Ki (BRD4 (BDII_E352-M457)) [µM]	Ki (BRD4 (BDI_K57-E168)) [µM]
COc1cccc(CC(=O)N2Cc3c[nH]c4c(=O)n(C)cc(c34)-c3cc(CS(C)(=O)=O)ccc32)c1 [Example 104, 4-(2-(3-methoxyphenyl)acetyl)-10-methyl-7-((methylsulfonyl)methyl)-3,4-dihydro-1H-1,4,10-triazadibenzo[cd,f]azulen-11(10H)-one]	0.0262	0.0347
Cn1cc2c3c(c[nH]c3c1=O)CN(C(=O)c1ccccc1)c1ccc(CS(C)(=O)=O)cc1-2 [Example 109, 4-benzoyl-10-methyl-7-((methylsulfonyl)methyl)-3,4-dihydro-1H-1,4,10-triazadibenzo[cd,f]azulen-11(10H)-one]	0.0156	0.0641
COc1ccc(C(=O)N2Cc3c[nH]c4c(=O)n(C)cc(c34)-c3cc(CS(C)(=O)=O)ccc32)cc1 [Example 110, 4-(4-methoxybenzoyl)-10-methyl-7-((methylsulfonyl)methyl)-3,4-dihydro-1H-1,4,10-triazadibenzo[cd,f]azulen-11(10H)-one]	0.0199	0.0417
Cn1cc2c3c(c[nH]c3c1=O)CN(C(=O)c1ccc(F)cc1F)c1ccc(CS(C)(=O)=O)cc1-2 [Example 112, 4-(2,4-difluorobenzoyl)-10-methyl-7-((methylsulfonyl)methyl)-3,4-dihydro-1H-1,4,10-triazadibenzo[cd,f]azulen-11(10H)-one]	0.0152	0.0532
Cn1cc2c3c(c[nH]c3c1=O)CN(C(=O)c1ccccc1F)c1ccc(CS(C)(=O)=O)cc1-2 [Example 113, 4-(2-fluorobenzoyl)-10-methyl-7-((methylsulfonyl)methyl)-3,4-dihydro-1H-1,4,10-triazadibenzo[cd,f]azulen-11(10H)-one]	0.0109	0.0856
Cn1cc2c3c(c[nH]c3c1=O)CN(C(=O)c1cccc3ccccc13)c1ccc(CS(C)(=O)=O)cc1-2 [Example 114, 4-(1-naphthoyl)-10-methyl-7-((methylsulfonyl)methyl)-3,4-dihydro-1H-1,4,10-triazadibenzo[cd,f]azulen-11(10H)-one]	0.0255	0.112
Cn1cc2c3c(c[nH]c3c1=O)CN(C(=O)CCc1ccccc1)c1ccc(CS(C)(=O)=O)cc1-2 [Example 116, 10-methyl-7-((methylsulfonyl)methyl)-4-(3-phenylpropanoyl)-3,4-dihydro-1H-1,4,10-triazadibenzo[cd,f]azulen-11(10H)-one]	0.0112	0.016
CN(C)C(NCC1c2c[nH]c3c(=O)n(C)cc(c23)-c2cc(CS(C)(=O)=O)ccc2N1c1ccc(F)cc1F)=[N+](C)C (stereo not shown) [Example 130, N-((((4-(2,4-difluorophenyl)-10-methyl-7-((methylsulfonyl)methyl)-11-oxo-3,4,10,11-tetrahydro-1H-1,4,10-triazadibenzo[cd,f]azulen-3-yl)methyl)amino)(dimethylamino)methylene)-N-methylmethanaminium]	0.0146	0.215
CCN1CCCC(CN2Cc3c[nH]c4c(=O)n(C)cc(c34)-c3cc(CS(C)(=O)=O)ccc32)C1 (stereo not shown) [Example 150, 4-((1-ethylpiperidin-3-yl)methyl)-10-methyl-7-((methylsulfonyl)methyl)-3,4-dihydro-1H-1,4,10-triazadibenzo[cd,f]azulen-11(10H)-one]	0.0108	0.00405
Cn1cc2c3c(c[nH]c3c1=O)C(C(=O)NC1CCCCC1)N(c1ccc(F)cc1F)c1ccc(CS(C)(=O)=O)cc1-2 (stereo not shown) [Example 158, N-cyclohexyl-4-(2,4-difluorophenyl)-10-methyl-7-((methylsulfonyl)methyl)-11-oxo-3,4,10,11-tetrahydro-1H-1,4,10-triazadibenzo[cd,f]azulene-3-carboxamide]	0.0773	0.0603
Cn1cc2c3c(c[nH]c3c1=O)C(C(=O)NCCO)N(c1ccc(F)cc1F)c1ccc(CS(C)(=O)=O)cc1-2 (stereo not shown) [Example 162, 4-(2,4-difluorophenyl)-N-(2-hydroxyethyl)-10-methyl-7-((methylsulfonyl)methyl)-11-oxo-3,4,10,11-tetrahydro-1H-1,4,10-triazadibenzo[cd,f]azulene-3-carboxamide]	0.0604	0.0471
Cn1cc2c3c(c[nH]c3c1=O)C(C(=O)NCc1cocn1)N(c1ccc(F)cc1F)c1ccc(CS(C)(=O)=O)cc1-2 (stereo not shown) [Example 163, 4-(2,4-difluorophenyl)-10-methyl-7-((methylsulfonyl)methyl)-N-(oxazol-4-ylmethyl)-11-oxo-3,4,10,11-tetrahydro-1H-1,4,10-triazadibenzo[cd,f]azulene-3-carboxamide]	0.0454	0.0574
Cn1cc2c3c(c[nH]c3c1=O)C(C(=O)NCC(C)(C)O)N(c1ccc(F)cc1F)c1ccc(CS(C)(=O)=O)cc1-2 (stereo not shown) [Example 165, 4-(2,4-difluorophenyl)-N-(2-hydroxy-2-methylpropyl)-10-methyl-7-((methylsulfonyl)methyl)-11-oxo-3,4,10,11-tetrahydro-1H-1,4,10-triazadibenzo[cd,f]azulene-3-carboxamide]	0.0796	0.0814
Cn1cc2c3c(c[nH]c3c1=O)C(C(=O)NCCCCc1ccccc1)N(c1ccc(F)cc1F)c1ccc(CS(C)(=O)=O)cc1-2 (stereo not shown) [Example 168, 4-(2,4-difluorophenyl)-10-methyl-7-((methylsulfonyl)methyl)-11-oxo-N-(4-phenylbutyl)-3,4,10,11-tetrahydro-1H-1,4,10-triazadibenzo[cd,f]azulene-3-carboxamide]	0.124	0.0932
Cn1cc2c3c(c[nH]c3c1=O)CN(C1CCC(N)CC1)c1ccc(S(C)(=O)=O)cc1-2 (stereo not drawn) [Example 171, 4-((trans)-4-aminocyclohexyl)-10-methyl-7-(methylsulfonyl)-3,4-dihydro-1H-1,4,10-triazadibenzo[cd,f]azulen-11(10H)-one]	0.0292	0.0164
CC1OCCC1N1Cc2c[nH]c3c(=O)n(C)cc(c23)-c2cc(CS(C)(=O)=O)ccc21 (stereo not shown) [Example 180, 10-methyl-7-((methylsulfonyl)methyl)-4-(2-methyltetrahydrofuran-3-yl)-3,4-dihydro-1H-1,4,10-triazadibenzo[cd,f]azulen-11(10H)-one]	0.0027	0.00151
CN1CCC(N2Cc3c[nH]c4c(=O)n(C)cc(c34)-c3cc(CS(C)(=O)=O)ccc32)CC1 [Example 181]	0.0171	0.00333
CC(C1CCOC1=O)N1Cc2c[nH]c3c(=O)n(C)cc(c23)-c2cc(CS(C)(=O)=O)ccc21 (stereo not shown) [Example 184, 10-methyl-7-((methylsulfonyl)methyl)-4-(1-(2-oxotetrahydrofuran-3-yl)ethyl)-3,4-dihydro-1H-1,4,10-triazadibenzo[cd,f]azulen-11(10H)-one]	0.00682	0.00434
CN1CCC(N2Cc3c[nH]c4c(=O)n(C)cc(c34)-c3cc(CS(C)(=O)=O)ccc32)C1 (stereo not shown) [Example 187]	0.05	0.00574
CN1CCCC(N2Cc3c[nH]c4c(=O)n(C)cc(c34)-c3cc(CS(C)(=O)=O)ccc32)CC1 (stereo not shown) [Example 189]	0.0223	0.00582
Cn1cc2c3c(c[nH]c3c1=O)C(c1cc(C(C)(C)C)cc(C(C)(C)C)c1)N(c1ccc(F)cc1F)c1ccc(CS(C)(=O)=O)cc1-2 (stereo not shown) [Example 223, 3-(3,5-di-tert-butylphenyl)-4-(2,4-difluorophenyl)-10-methyl-7-((methylsulfonyl)methyl)-3,4-dihydro-1H-1,4,10-triazadibenzo[cd,f]azulen-11(10H)-one]	> 0.408	> 0.238
Cn1cc2c3c(c[nH]c3c1=O)CN(Cc1ccccc1OCC(N)=O)c1ccc(CS(C)(=O)=O)cc1-2 [Example 262, 2-(2-((10-methyl-7-((methylsulfonyl)methyl)-11-oxo-10,11-dihydro-1H-1,4,10-triazadibenzo[cd,f]azulen-4(3H)-yl)methyl)phenoxy)acetamide]	0.0132	0.00937
CCS(=O)(=O)c1ccc2c(c1)-c1cn(C)c(=O)c3[nH]cc(c13)CN2[C@@H](C)c1ccccc1 [Example 267, (S)-7-(ethylsulfonyl)-10-methyl-4-(1-phenylethyl)-3,4-dihydro-1H-1,4,10-triazadibenzo[cd,f]azulen-11(10H)-one]	0.0947	0.0727
